Among the data in patent US11261175B2 (priority 2017, dated 2022) are EC50 values, retold here.

What all share (type): cell-based
The subject of test [1] is HCV replicon NK5.1-Gluc (genotype 1b). In words: Anti-HCV activity using HCV replicon NK5.1-Gluc (genotype 1b) in Huh 7.5.1 cells, luciferase readout. Particulars: Hepatitis C virus, 72 h; Huh 7.5.1 cells with NK5.1-Gluc replicon, 3 days, Gaussia luciferase; read-out: HCV wt. GT-1b. (In general: In antiviral work, replicon cells carry a viral genome segment that copies itself.)

In test [2] the test system is HCV genotype 1b replicon with NS5A L31V+Y93H (double mutant). In words: Transiently transfected assay of genotype 1b resistance mutant RNA L31V+Y93H (double mutant). Particulars: Hepatitis C virus, Huh-7.5.1, 72 h, read-out: HCV Mutation L31V + Y93H. Put shortly:
(§1)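 Huh7.5.1 cells were electroporated with in vitro-transcribed, ScaI-linearized replicon RNAs carrying the Daclatasvir-resistance substitutions, then seeded 4 h later into DMEM with serially diluted compound. After 3 days, intracellular luciferase activity was read and normalized to mock-treated cells.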

In test [3] the test system is JFH5a-Rluc-ad34 virus (HCV GT-2a). Put plainly: Anti-HCV activity using HCVcc (JFH5a-Rluc-ad34 virus) in Huh 7.5.1 cells, Renilla luciferase readout. Particulars: Hepatitis C virus, GT2A, Huh-7.5.1, 72 h, read-out: HCV wt. GT-2a. Put shortly: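 Huh 7.5.1 cells were inoculated with JFH5a-Rluc-ad34, a JFH1-derived virus with adaptive E2/p7 mutations, for 4 h before serially diluted compound was added. Intracellular Renilla luciferase was read after three days and normalized to mock-treated controls.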

In test [4] the test system is HCV replicon S52-Feo (genotype 3a). Put plainly: Anti-HCV activity using HCV replicon S52-Feo (genotype 3a) in Huh 7.5.1 cells, luciferase readout. The conditions noted are these: Hepatitis C virus, 72 h; Huh 7.5.1 cells with S52-Feo replicon, 3 days, firefly luciferase; read-out: HCV wt. GT-3a.
Test [5] has as its system HCV genotype 1b replicon with NS5A L31V mutation. In words: Transiently transfected assay of genotype 1b resistance mutant RNA L31V. The conditions noted are these: Hepatitis C virus, Huh-7.5.1, 72 h, read-out: HCV Mutation L31V. Put shortly:
as §1

Test [6] deals with HCV genotype 1b replicon with NS5A Y93H mutation. In words: Transiently transfected assay of genotype 1b resistance mutant RNA Y93H. Particulars: Hepatitis C virus, Huh-7.5.1, 72 h, read-out: HCV Mutation Y93H. Put shortly: as §1

With `CCCCC1(CCCC)c2cc(NC(=O)[C@@H]3C[C@@H](OC(=O)C(C)C)CN3C(=O)[C@H](NC(=O)OC)c3ccccc3)ccc2-c2ccc(NC(=O)[C@@H]3C[C@@H](OC(=O)C(C)C)CN3C(=O)[C@H](NC(=O)OC)c3ccccc3)cc21` [Example 32, (3R,3′R,5S,5′S,52R)-5,5′-(9,9-dibutyl-9H-fluorene-2,7-diyl)bis(azanediyl)bis(oxomethylene)bis(1-((R)-2-(methoxycarbonylamino)-2-phenylacetyl)pyrrolidine-5,3-diyl) bis(2-methylpropanoate)], the EC50 in test [1] is 1 to 10 pM; in test [2], 10 to 100 pM; in test [3], 100 to 1000 pM; in test [4] it was 10 to 100 pM; in test [5] it was 10 to 100 pM; in test [6], 10 to 100 pM.

Consider `CCCCC1(CCCC)c2cc(NC(=O)[C@@H]3C[C@@H](OC(=O)CN4CCOCC4)CN3C(=O)[C@H](NC(=O)OC)c3ccccc3)ccc2-c2ccc(NC(=O)[C@@H]3C[C@@H](OC(=O)CN4CCOCC4)CN3C(=O)[C@H](NC(=O)OC)c3ccccc3)cc21` [Example 33, (3R,3′R,5S,5S,52R)-5,5′-(9,9-dibutyl-9H-fluorene-2,7-diyl)bis(azanediyl)bis(oxomethylene)bis(1-((R)-2-(methoxycarbonylamino)-2-phenylacetyl)pyrrolidine-5,3-diyl) bis(2-morpholinoacetate)], for which the EC50 in test [1] lay in the range of 10 to 100 pM; in test [2], 100 to 1000 pM; in test [3], 100 to 1000 pM; in test [4], 100 to 1000 pM; in test [5] it was 10 to 100 pM; in test [6] it was 10 to 100 pM.

For the compound `CCCCC1(CCCC)c2cc(NC(=O)[C@@H]3C[C@@H](OCCOC)CN3C(=O)[C@H](NC(=O)OC)c3ccccc3)ccc2-c2ccc(NC(=O)[C@@H]3C[C@@H](OCCOC)CN3C(=O)[C@H](NC(=O)OC)c3ccccc3)cc21` [Example 34, dimethyl (1R,1′R)-2,2′-((3R,3′R,5S,5′S)-5,5′-(9,9-dibutyl-9H-fluorene-2,7-diyl)bis(azanediyl)bis(oxomethylene)bis(3-(2-methoxyethoxy)pyrrolidine-5,1-diyl))bis(2-oxo-1-phenylethane-2,1-diyl)dicarbamate], the EC50 in test [1] was in the range of 100 to 1000 pM; in test [2], 1000 to 100000 pM; in test [3], 1000 to 100000 pM; in test [4], 1000 to 100000 pM; in test [5], 10 to 100 pM; in test [6], 10 to 100 pM.

`CCCCC1(CCCC)c2cc(NC(=O)[C@@H]3C[C@H](O)CN3C(=O)[C@H](NC(=O)OC)c3ccccc3)ccc2-c2ccc(NC(=O)[C@@H]3C[C@H](O)CN3C(=O)[C@H](NC(=O)OC)c3ccccc3)cc21` [Example 35, dimethyl (1R,1′R)-2,2′-((3S,3′S,5S,5′S)-5,5′-(9,9-dibutyl-9H-fluorene-2,7-diyl)bis(azanediyl)bis(oxomethylene)bis(3-hydroxypyrrolidine-5,1-diyl))bis(2-oxo-1-phenylethane-2,1-diyl)dicarbamate]: the EC50 in test [1] lay within 10 to 100 pM; in test [2], 1000 to 100000 pM; in test [3], 1000 to 100000 pM; in test [4] it was 10 to 100 pM; in test [5], 1 to 10 pM; in test [6], 100 to 1000 pM.

As to `CCCCC1(CCCC)c2cc(NC(=O)[C@@H]3C[C@H](COC)CN3C(=O)[C@H](NC(=O)OC)c3ccccc3)ccc2-c2ccc(NC(=O)[C@@H]3C[C@H](COC)CN3C(=O)[C@H](NC(=O)OC)c3ccccc3)cc21` [Example 36, dimethyl (1R,1′R)-2,2′-((3S,3′S,5S,5′S)-5,5′-(9,9-dibutyl-9H-fluorene-2,7-diyl)bis(azanediyl)bis(oxomethylene)bis(3-(methoxymethyl)pyrrolidine-5,1-diyl))bis(2-oxo-1-phenylethane-2,1-diyl)dicarbamate], the EC50 in test [1] is 1 to 10 pM; in test [2] it was 100 to 1000 pM; in test [3], 100 to 1000 pM; in test [4], 10 to 100 pM; in test [5], 1 to 10 pM; in test [6] it was 1 to 10 pM.

With `CCCCC1(CCCC)c2cc(NC(=O)[C@@H]3CCCN3C(=O)[C@H](NC(=O)OC)c3ccccc3)ccc2-c2ccc(NC(=O)[C@@H]3C[C@H](COC)CN3C(=O)[C@H](NC(=O)OC)c3ccccc3)cc21` [Example 37, methyl ((R)-2-((2S,4S)-2-((9,9-dibutyl-7-((S)-1-((R)-2-((methoxycarbonyl)amino)-2-phenylacetyl)pyrrolidine-2-carboxyamido)-9H-fluorene-2-yl)carbamoyl)-4-(methoxymethyl)pyrrolidine-1-yl)-2-oxo-1-phenylethyl)carbamate], the EC50 was in the range of 1 to 10 pM in test [1]; 1000 to 100000 pM in test [2]; 100 to 1000 pM in test [3]; 1 to 10 pM in test [4]; 1 to 10 pM in test [5]; 10 to 100 pM in test [6].

Regarding `CCCCC1(CCCC)c2cc(NC(=O)[C@@H]3C[C@@H](O)CN3C(=O)[C@H](NC(=O)OC)c3ccccc3)ccc2-c2ccc(NC(=O)[C@@H]3C[C@H](COC)CN3C(=O)[C@H](NC(=O)OC)c3ccccc3)cc21` [Example 38, methyl ((R)-2-((2S,4S)-2-((9,9-dibutyl-7-((2S,4R)-4-hydroxy-1-((R)-2-((methoxycarbonyl)amino)-2-phenylacetyl)pyrrolidine-2-carboxyamido)-9H-fluorene-2-yl)carbamoyl)-4-(methoxymethyl)pyrrolidine-1-yl)-2-oxo-1-phenylethyl)carbamate], the EC50 in test [1] lay within 10 to 100 pM; in test [2], 10 to 100 pM; in test [3], 100 to 1000 pM; in test [4], 10 to 100 pM; in test [5], 1 to 10 pM; in test [6], 1 to 10 pM.

With `CCCCC1(CCCC)c2cc(NC(=O)[C@@H]3C[C@@H](OC)CN3C(=O)[C@H](NC(=O)OC)c3ccccc3)ccc2-c2ccc(NC(=O)[C@@H]3C[C@@H](OC)CN3C(=O)[C@H](NC(=O)OC)c3ccccc3)cc21` [Example 39, dimethyl (1R,1′R)-2,2′-((3R,3′R,5S,5′S)-5,5′-(9,9-dibutyl-9H-fluorene-2,7-diyl)bis(azanediyl)bis(oxomethylene)bis(3-methoxypyrrolidine-5,1-diyl))bis(2-oxo-1-phenylethane-2,1-diyl)dicarbamate], the EC50 in test [1] lay within 10 to 100 pM; in test [2], 1000 to 100000 pM; in test [3] it was 1000 to 100000 pM; in test [4], 100 to 1000 pM; in test [5], 1 to 10 pM; in test [6], 10 to 100 pM.

For the compound `CCCCC1(CCCC)c2cc(NC(=O)[C@@H]3C[C@H](COC)CN3C(=O)[C@H](NC(=O)OC)c3ccccc3)ccc2-c2ccc(-c3cnc([C@@H]4C[C@H](COC)CN4C(=O)[C@@H](NC(=O)OC)C(C)C)[nH]3)cc21` [Example 40, methyl ((S)-1-((2S,4S)-2-(5-(9,9-dibutyl-7-((2S,4S)-1-((R)-2-((methoxycarbonyl)amino)-2-phenylacetyl)-4-(methoxymethyl)pyrrolidine-2-carboxyamido)-9H-fluorene-2-yl)-1H-imidazole-2-yl)-4-(methoxymethyl)pyrrolidine-1-yl)-3-methyl-1-oxobutane-2-yl)carbamate], the EC50 lay in the range of 1 to 10 pM in test [1]; 1000 to 100000 pM in test [2]; 10 to 100 pM in test [3]; 100 to 1000 pM in test [4]; 1 to 10 pM in test [5]; 10 to 100 pM in test [6].

On to `CCCCC1(CCCC)c2cc(NC(=O)[C@@H]3CCCN3C(=O)[C@H](NC(=O)OC)c3ccccc3)ccc2-c2ccc(-c3cnc([C@@H]4C[C@H](COC)CN4C(=O)[C@@H](NC(=O)OC)C(C)C)[nH]3)cc21` [Example 41, methyl ((S)-1-((2S,4S)-2-(5-(9,9-dibutyl-7-((S)-1-((R)-2-((methoxycarbonyl)amino)-2-phenylacetyl)pyrrolidine-2-carboxyamido)-9H-fluorene-2-yl)-1H-imidazole-2-yl)-4-(methoxymethyl)pyrrolidine-1-yl)-3-methyl-1-oxobutane-2-yl)carbamate], for which the EC50 lay within 10 to 100 pM in test [1]; 1000 to 100000 pM in test [2]; 10 to 100 pM in test [3]; 100 to 1000 pM in test [4]; 1 to 10 pM in test [5]; 10 to 100 pM in test [6].

Consider `CCCCC1(CCCC)c2cc(NC(=O)[C@@H]3C[C@H](COC)CN3C(=O)[C@H](NC(=O)OC)c3ccccc3)ccc2-c2ccc(-c3cnc([C@@H]4CCCN4C(=O)[C@@H](NC(=O)OC)C(C)C)[nH]3)cc21` [Example 42, methyl ((S)-1-((S)-2-(5-(9,9-dibutyl-7-((2S,4S)-1-((R)-2-((methoxycarbonyl)amino)-2-phenylacetyl)-4-(methoxymethyl)pyrrolidine-2-carboxyamido)-9H-fluorene-2-yl)-1H-imidazole-2-yl)pyrrolidine-1-yl)-3-methyl-1-oxobutane-2-yl)carbamate], for which the EC50 in test [1] lay within 10 to 100 pM; in test [2] it was 1000 to 100000 pM; in test [3], 100 to 1000 pM; in test [4], 100 to 1000 pM; in test [5] it was 1 to 10 pM; in test [6], 10 to 100 pM.
